Columns and labels:
[1] = target: T1, horseradish peroxidase Type VIA (Armoracia rusticana, UniProt P00433); test: Enhanced chemiluminescent assay for peroxide with 4-biphenylboronic acid (Example 8a); assay type: biochemical; conditions: 10µl enhancer (1:20 dilution of 1mg/ml)
T1 construct: purchased Sigma Chemical Co
T1 sequence (P00433 31-338): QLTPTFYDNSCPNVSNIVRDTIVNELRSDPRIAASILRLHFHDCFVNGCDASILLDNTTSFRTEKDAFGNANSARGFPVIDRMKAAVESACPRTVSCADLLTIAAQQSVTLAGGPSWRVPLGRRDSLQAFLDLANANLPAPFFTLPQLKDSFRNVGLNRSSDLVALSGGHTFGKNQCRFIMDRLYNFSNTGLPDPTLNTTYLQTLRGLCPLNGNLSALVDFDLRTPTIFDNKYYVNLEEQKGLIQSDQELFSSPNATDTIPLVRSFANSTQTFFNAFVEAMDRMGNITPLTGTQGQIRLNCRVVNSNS
Protocol: The assay reagent consisted of the following reagents: 10µl 4-biphenylboronic acid (1:20 dilution of a 1mg/ml stock in DMSO), 10µl horseradish peroxidase (1:500,000 dilution of a 1mg/ml stock Type VIA in 0.1 mol/l Tris buffer pH 8.6) and 100µl luminol (0.025 g/l in 0.1 mol/l Tris buffer pH 8.6). These were mixed together and the light emission measured. A 10µl sample of a hydrogen peroxide solution (dilutions of a stock, 31µl 30% w/v hydrogen peroxide/ml in Tris buffer) was added, the contents of the assay tube mixed and the light emission recorded.
From Table 9 it can be seen that there was a dose-dependent increase in light output up to 2.4µmoles of peroxide.

[2] = target: T1, horseradish peroxidase Type VIA; test: Enhanced chemiluminescent assay for luminol with 4-biphenylboronic acid (Example 8b); assay type: biochemical; conditions: 10µl enhancer (1:20 dilution of 1mg/ml)
Protocol: The assay reagent consisted of the following reagents: 10µl 4-biphenylboronic acid (1:20 dilution of a 1mg/ml stock in DMSO), 10µl horseradish peroxidase (1:500,000 dilution of a lmg/ml stock Type VIA in 0.1 mol/l Tris buffer pH 8.6) and 100µl hydrogen peroxide solution (31µl 30% w/v hydrogen peroxide diluted in 100ml Tris buffer). These were mixed together and the light emission measured. A 10µl sample of a luminol solution (dilutions of a 0.25g/l in 0.1 mol/l Tris buffer pH 8.6 stock) was added, the contents of the assay tube mixed and the light emission recorded.
From Table 10 it can be seen that there was a dose-dependent increase in light output at all concentrations of luminol tested.

HRP Type VIA = target: T2, HRP Type VIA (Armoracia rusticana, UniProt P00433)
T2 sequence (P00433 31-338): T1 sequence (P00433 31-338)

SMILES: OB(O)c1ccc(-c2ccccc2)cc1 [Compound 1011, 4-biphenylboronic acid]
- Light emission at 5 minutes ([1]; Hydrogen peroxide 0 µmoles): 525
- Light emission at 5 minutes ([1]; Hydrogen peroxide 0.00024 µmoles): 659
- Light emission at 5 minutes ([1]; Hydrogen peroxide 0.0024 µmoles): 1,500
- Light emission at 5 minutes ([1]; Hydrogen peroxide 0.024 µmoles): 40,682
- Light emission at 5 minutes ([1]; Hydrogen peroxide 0.24 µmoles): 584,638
- Light emission at 5 minutes ([1]; Hydrogen peroxide 2.4 µmoles): 620,551
- Light emission at 5 minutes ([1]; Hydrogen peroxide 24 µmoles): 339,291
- Light emission at 10 minutes ([2]; Luminol 0 µmoles): 54
- Light emission at 10 minutes ([2]; Luminol 0.00125 µmoles): 145
- Light emission at 10 minutes ([2]; Luminol 0.0125 µmoles): 620
- Light emission at 10 minutes ([2]; Luminol 0.125 µmoles): 5,161
- Light emission at 10 minutes ([2]; Luminol 1.25 µmoles): 55,873
- Light emission at 10 minutes ([2]; Luminol 12.5 µmoles): 358,184
- Light emission at 10 minutes ([2]; Luminol 125 µmoles): 834,089
- (a) Decrease in background (without HRP with test cpd.) (HRP Type VIA): Y
- (b) Increase in signal (with HRP, with test cpd.) (HRP Type VIA): Y
- (c) Increase in signal: background ratio (HRP Type VIA): Y (key: Column (c) shows whether there was an increase in the signal:background ratio by over 25% of the control value (Y = yes; N = no)

Source: patent EP0626016B1, “[…] […]” (BRITISH TECHNOLOGY GROUP LIMITED, priority 1992, dated 1993)
